Assay [1] addresses T1, VRK3 Inactive serine/threonine-protein kinase VRK3 (Homo sapiens, UniProt Q8IV63).
T1 construct: Cells were resuspended in cold PBS on ice and sonicated with a probe sonicator to achieve lysis; endogenous in cells
T1 sequence (Q8IV63 1-474): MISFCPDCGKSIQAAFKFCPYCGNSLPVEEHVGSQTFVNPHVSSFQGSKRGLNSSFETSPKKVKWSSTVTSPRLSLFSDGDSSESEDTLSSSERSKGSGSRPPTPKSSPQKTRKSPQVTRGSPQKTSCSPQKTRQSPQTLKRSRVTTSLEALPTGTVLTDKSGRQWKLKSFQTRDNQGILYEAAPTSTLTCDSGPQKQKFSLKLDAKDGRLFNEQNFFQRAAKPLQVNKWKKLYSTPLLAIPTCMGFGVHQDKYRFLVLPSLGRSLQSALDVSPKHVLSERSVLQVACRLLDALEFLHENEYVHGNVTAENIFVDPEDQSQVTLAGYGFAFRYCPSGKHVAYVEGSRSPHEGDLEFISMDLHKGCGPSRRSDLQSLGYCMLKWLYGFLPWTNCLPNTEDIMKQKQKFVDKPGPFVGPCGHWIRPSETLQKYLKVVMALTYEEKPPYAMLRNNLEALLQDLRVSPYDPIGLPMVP
Put plainly: Cysteine liganding, probe competition. The format is binding. An outline of the steps:
(§1)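 Probe competition in native proteome: 5 mg/ml lysate, compound 1 hr 25° C, then desthiobiotin iodoacetamide (10 mM stock) 1 hr 25° C; acetone ppt, urea/DTT reduction, iodoacetamide alkylation, trypsin, streptavidin pull-down.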

Assay [2] has as its target T2, DCAF17 DDB1- and CUL4-associated factor 17 (Homo sapiens, UniProt Q5H9S7).
T2 construct: Cells were resuspended in cold PBS on ice and sonicated with a probe sonicator to achieve lysis; endogenous in cells
T2 sequence (Q5H9S7 1-520): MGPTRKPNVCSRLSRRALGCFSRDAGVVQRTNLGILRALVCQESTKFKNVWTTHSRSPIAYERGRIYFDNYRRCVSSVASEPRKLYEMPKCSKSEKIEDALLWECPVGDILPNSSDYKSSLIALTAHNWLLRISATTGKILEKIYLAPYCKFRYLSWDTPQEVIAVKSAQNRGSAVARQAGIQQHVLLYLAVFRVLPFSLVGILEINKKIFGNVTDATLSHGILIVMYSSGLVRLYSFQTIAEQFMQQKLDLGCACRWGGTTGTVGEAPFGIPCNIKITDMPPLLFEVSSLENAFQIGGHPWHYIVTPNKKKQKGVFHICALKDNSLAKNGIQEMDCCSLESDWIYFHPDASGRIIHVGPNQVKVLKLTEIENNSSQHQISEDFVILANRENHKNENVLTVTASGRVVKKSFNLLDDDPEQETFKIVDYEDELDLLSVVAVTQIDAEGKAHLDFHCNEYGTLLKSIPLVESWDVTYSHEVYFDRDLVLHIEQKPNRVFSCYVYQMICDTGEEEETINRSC
Put plainly: Cysteine liganding, probe competition. It counts as binding. An outline of the steps: as §1

`COc1ccc2c(c1)CCCN2C(=O)CCl` [KB02]: the Liganded entry in assay [1] (VRK3 Res# 191, uniprot Q8IV63) was “YES”. In addition, the Liganded result in assay [2] (DCAF17 Res# 20, uniprot Q5H9S7) is listed as “YES”. In addition, in assay [2] (uniprot Q5H9S7), the “100 Max” value was 60.8, the 100 ave is on record as 40.3, the “500 Max” value was 91.7 and the 500 ave was 91.7.

For `O=C(CCl)Nc1cc(C(F)(F)F)cc(C(F)(F)F)c1` [KBO3], in assay [1] (uniprot Q8IV63), the “100 Max” value was −8.38, the 100 ave is given as −10.03 and the 500 ave worked out at 14.41. In assay [1] (uniprot Q8IV63, in % (unit assumed)), the “500 Max” value is listed as 14.41. In addition, in assay [2] (uniprot Q5H9S7), the “100 Max” value is −21.2 and the 100 ave is −21.2.

For the origin of these results see patent publication US20200239530A1, “COMPOUNDS AND METHODS OF MODULATING PROTEIN DEGRADATION” (Vividion Therapeutics, Inc., priority 2017, published 2020).
